# Experimental data from US20210283110A1, “COMPOUND FOR USE IN THE TREATMENT OF A DISEASE CHARACTERIZED BY DYSREGULATED MUCUS PRODUCTION AND/OR SECRETION” (UNIVERSITÄT REGENSBURG, priority 2018, published 2021).
# “Also recorded” adds a separate entry of the source.
# Experiments:
# [1] = tested on: freshly isolated crypt cells; test: ATP-induced Ca2+ rise in freshly isolated crypt cells (Fura-2); assay type: cell-based, mouse; settings: low concentrations of niclosamide
# Description: All methods were carried out as specified in the previous examples. For the measurements of Ca^2+, crypts were isolated from inverted proximal mouse colons using Ca^2+-free Ringer solution with 1 mM DTT and 1 μM indomethacin for 20 min at 37° C. Crypts were loaded with 10 μM Fura2-AM (Biotum, USA) and 1 mg/ml BSA (Sigma-Aldrich) in ringer solution for 1 h at RT. Intracellular Ca^2+ was measured by loading crypts with […] Fura-2/AM and 0.02% Pluronic F-127 (Life Technologies, Germany) in ringer solution for 1 h at room temperature. Fluorescence was detected in cells perfused with Ringer's solution at 37° C. using an inverted microscope (Axiovert S100, Zeiss, Germany) and a high-speed polychromator system (VisiChrome, Germany). Fura-2 was excited at 340/380 nm, and emission was recorded between 470 and 550 nm using a CoolSnap camera (CoolSnap HQ, Visitron).
# (§1) It was examined whether niclosamide inhibits intestinal mucus secretion. To this end, niclosamide was added to the perfusate. […] The present inventors detected reduced Ca^2+ increase upon ATP-stimulation of freshly isolated crypt cells from Vil1-Cre TMEM16F^flox/flox mice. […] Increase in FM4-64 fluorescence in the plasma membrane is a marker for membrane exocytosis. The present inventors detected that ATP-stimulation (but not cholinergic stimulation) of HEK293 cells expressing TMEM16F induced FM4-64 fluorescence, i.e. exocytosis.
# [2] = tested on: airways of OVA-sensitized mice; test: OVA-induced allergic airway inflammation in mice (alcian blue mucus staining, airway cross section, CD45 infiltration); assay type: in vivo, mouse
# Description: Intestinal sections were collected for histological analyses. Mouse airways were fixed by transcardial fixation and were embedded in paraffin or were used as cryosections. For paraffin sections, tissues were fixed in 4% paraformaldehyde (PFA), 0.2% picric acid and 3.4% sucrose in PBS, and were washed in methanol before embedding in paraffin. Sections were stained according to standard Periodic acid-Schiff (PAS) or Alcian Blue methods and assessed by light microscopy.
# (§2) Mouse models were performed according to the previous example. For investigating mucus, IL-8 release, and leukocytes, tissues were fixed using 4% paraformaldehyde (PFA), 0.2% picric acid and 3.4% sucrose in PBS and washed in methanol before embedding in paraffin. Mucus was analyzed using standard Periodic acid-Schiff (PAS) or alcian blue staining. MUC5AC was stained using anti-MUC5AC mouse antibody (1:200, Abcam, ab3649) and a secondary antibody conjugated with Alexa488 (Life Technologies, A-21206). Nuclei were stained with Hoe33342 (0.1 μg/ml PBS, Aplichem, Darmstadt, Germany). Quantikine ELISA kits (R&D systems) were used to measure secretion of the cytokine IL-8 by Calu3 cells.
# All methods were performed as described in the previous examples. Mice were treated with ovalbumin (OVA) to induce an allergic reaction which leads to airway inflammation. […] After allergization with OVA and development of airway inflammation, excessive mucus production and inflammatory infiltration with immune cells is observed. Activation of cholinergic receptors using the muscarinic agonist carbachol (CCH) results in constriction of the airways and secretion of mucus (FIG. 5A-C). 3-day treatment using niclosamide reduced the CCH-induced constriction of the airways (FIG. 1). Furthermore, mucus secretion and inflammatory infiltrates were reduced.
# OVA-induced allergic airway inflammation in mice caused pronounced airway goblet cell metaplasia. […] NFA is a well know inhibitor of Ca^2+ activated Cl^− channels and inhibits TMEM16A. The two main TMEM16 paralogs expressed in airway epithelial and smooth muscle cells, TMEM16A and TMEM16F, were expressed in HEK293 cells and the whole cell currents upon activation by the Ca^2+ ionophore ionomycin (Iono) were measured. […] Novel therapeutic strategies for the treatment of inflammatory airway diseases such as CF may therefore consider the use of inhibitors of TMEM16.
# The present inventors disclose that airway epithelial knockout of TMEM16A causes a defect in basal, i.e. ATP-mediated mucus secretion. […] Mucus synthesis under inflammatory (OVA) conditions and mucus release upon cholinergic stimulation, however, were not compromised (FIG. 16C). […] Because basal mucus production still occurs in the absence of TMEM16A, other TMEM16 paralogs may also be in charge of mucus synthesis.
# TMEM16A or TMEM16F = test: Expression of TMEM16A / TMEM16F after niclosamide; assay type: cell-based
# [3] = tested on: mice homozygous for the cystic fibrosis mutation CFTR^deltaF508/deltaF508; assay type: in vivo; settings: 13 mg/kg/day intraperitoneally for 7 days, in corn oil; vs sham
# Description: Animals were treated for 7 days and subsequently sacrificed. Jejunum was excised, fixed in Carnoy Solution and embedded in paraffin.
# [4] = tested on: Calu3 human airway epithelial cells; test: IL-13 induced MUC5AC expression in Calu3 cells; assay type: cell-based; settings: IL-13 stimulation
# Description: as §2
# Calu3 airway epithelial cells were exposed to LPS for 48 hrs and the release of the neutrophil attractor interleukin 8 (IL-8) was measured. […] Upon stimulation with the Th2 cytokine IL-13, Calu3 cells produced MUC5AC. […] Taken together, airway epithelial knockout of TMEM16A caused a defect in mucus secretion, while mucus production was retained (FIG. 16C).
# excised wt colon = test: Acute mucus secretion in in vitro perfused excised colon, niclosamide in perfusate; set-up: species or system mouse; settings: niclosamide 10 μM in perfusate
# From the text: Cholinergic stimulation released mucus from freshly isolated TMEM16A+/+ and TMEM16A−/− intestine (FIG. 6D-F). Mucus release was examined in more detail by perfusing freshly excised colon and collecting released mucus in vitro. For in vitro perfusion of intestines, mice were sacrificed and excised intestines were placed immediately in ice-cold Ringer solution and carefully flushed to remove residual luminal contents. The intestinal segments were mounted and perfused vertically in a custom-designed perfusion chamber with a constant temperature.
# It was examined whether TMEM16F is also important for intestinal mucus secretion and acute mucus release was measured in freshly excised colonic segments mounted in a vertical custom-designed perfusion chamber at 37° C. and 24 mmol/1 HCO3^−/5% CO2. Secretion of mucus was induced by basolateral perfusion with methacholine (MCh) and by luminal perfusion of ATP. […]
# as §1, with “secretion.” for “secretion. To this end, niclosamide was added to the perfusate.”
smiles,measurement,setting,value
"O=C(Nc1ccc([N+](=O)[O-])cc1Cl)c1cc(Cl)ccc1O [niclosamide, 5-chloro-N-(2-chloro-4-nitrophenyl)-2-hydroxybenzamide]",ATP-induced Ca2+ rise,[1],potently inhibited
same,inflammatory infiltrates,"[2]; OVA-allergized mice, 3-day treatment",reduced
same,mucus secretion,"[2]; OVA-allergized mice, 3-day treatment, CCH",reduced
same,CCH-induced constriction of the airways,"[2]; OVA-allergized mice, 3-day treatment, carbachol (CCH)",reduces
same,CCH-induced airway contraction,"[2]; OVA-sensitized TMEM16A+/+ and TMEM16A−/− mice, intratracheal for three days before CCH",strongly attenuated
same,mucus synthesis / production,"[2]; OVA-sensitized wt (TMEM16A+/+) and TMEM16A−/− mice, intratracheal for three days before CCH",strongly reduced; also recorded: strongly attenuated
same,OVA-induced mucus production,"[2]; wt mice, tracheal instillation, niflumic acid 20 μM or niclosamide 5 μM",strongly reduced; also recorded: inhibited mucus production
same,expression of either TMEM16A or TMEM16F,TMEM16A or TMEM16F,did not change
same,jejunal diameters,[3],smaller
same,mucus in jejunum (alcian blue),[3],largely reduced
same,Muc5AC-expression,[4],largely reduced
same,mucus secretion activated by basolateral MCh,excised wt colon,not
same,mucus secretion activated by luminal ATP,excised wt colon,clearly inhibited
